Reference: publication PMC9486129, “An evolutionary divergent thermodynamic brake in ZAP-70 fine-tunes the kinetic proofreading in T cells” (The Journal of Biological Chemistry, 2022)
Substitutions are numbered along the chain they refer to. “And” between values parts separate entries of the source, which are not always exact repeats. Equal values may be shown once. Where a SMILES comes first, the peptide text is derived from it. [ ]: non-standard residue; d: D form. pY = N[C@@H](Cc1ccc(OP(=O)(O)O)cc1)C(=O)O

Experiments:
tSH2R192A of ZAP-70 = biological target: T1, tSH2R192A of ZAP-70 (Homo sapiens, UniProt P43403); experiment: Isothermal titration calorimetry, ZAP-70 tSH2R192A (C-SH2 mutant)
T1 sequence (P43403 1-256 R190A): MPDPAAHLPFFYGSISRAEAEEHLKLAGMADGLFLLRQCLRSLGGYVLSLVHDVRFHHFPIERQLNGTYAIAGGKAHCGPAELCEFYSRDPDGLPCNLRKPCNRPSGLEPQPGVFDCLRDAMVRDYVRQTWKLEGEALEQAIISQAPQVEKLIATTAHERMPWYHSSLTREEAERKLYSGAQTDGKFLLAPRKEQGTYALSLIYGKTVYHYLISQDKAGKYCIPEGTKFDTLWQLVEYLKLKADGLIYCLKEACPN
Experimental: We probed Kd1 and Kd1∗ by fluorescence spectroscopy and Kd2 and Kd1∗ by ITC. To probe the Kd2 , we used ^tSH2R190A mutant that impairs phosphotyrosine binding to C-SH2 PBP (Figs. 1E and S1F).
ITC studies were carried out using Malvern-PEAQ_ITC at 20 °C. […] The Kd , ΔH, and ΔS were fitted into two-site sequential fit using ORIGIN as described previously ([33]). In the ITC experiments with C-SH2 domain mutant (R190A), the protein was buffer exchanged to 20 mM Hepes pH 8.2, 150 mM NaCl, and 5 mM β-mercaptoethanol.

Syk tSH2 domain = biological target: T2, Syk tSH2 domain (Homo sapiens, UniProt P43405); experiment: Steady-state intrinsic tryptophan fluorescence titration, Syk tSH2; assay type: binding; conditions: 25 °C, 0.5 μM tSH2, SD from three independent experiments
T2 construct: Syk tSH2 (7–263), cloned in pGEX6P1 vector; GST (N, cleaved yes); host or cells: E. coli BL21(DE3)
Experimental: (§1) The dissociation constant ( Kd ) was derived by fitting the normalized intensity (F0/F) versus ligand concentration using the following equation: F0/F=Bmax∗X^nH/(Kd^nH+X^nH) where F0 and F is fluorescence intensity in absence and presence of ligand, respectively. Bmax is the maximum binding, and nH is the Hill coefficient. The Hill coefficient (nH) was also determined from Hill plot ([70]).

tSH2 domain of ZAP-70 = biological target: T3, tSH2 domain of ZAP-70 (Homo sapiens, UniProt P43403); experiment: Steady-state intrinsic tryptophan fluorescence titration, ZAP-70 tSH2 wild type; assay type: binding
T3 construct: ZAP-70 tSH2 WT (1–256), cloned in pSKB2 vector; made in house; host or cells: E. coli BL21(DE3)
T3 sequence (P43403 1-256): T1 sequence (P43403 1-256 R190A) with A190R
Experimental: as §1

ZAP-70 tSH2 domain = biological target: T4, ZAP-70 tSH2 domain (Homo sapiens, UniProt P43403); experiment: Stopped-flow fluorescence binding kinetics, ZAP-70 tSH2 wild type; conditions: 10 °C
T4 construct: ZAP-70 tSH2 WT (1–256), cloned in pSKB2 vector; made in house; host or cells: E. coli BL21(DE3)
T4 sequence (P43403 1-256): T1 sequence (P43403 1-256 R190A) with A190R
Experimental: We observed that the fluorescence intensity decay in two steps, fast (<200 ms) and slow (>20 s) (Fig. 3A). […] All kinetic data were first normalized against the highest intensity and then subtracted by the blank (protein only sample) (Fig. 3, A and B) and fitted to a one-site association kinetics (Table 1).
The change in fluorescence intensity was measured at λex 290 nm, λem 350 nm, and 10 °C ([71]). […] Each transient was measured over 200s (for slow kinetics) or 1s (for fast kinetics), interval with 1500 and 101 time points, respectively. For each sample, a blank dataset was recorded by measuring the change in intensity for protein only. Each data set was normalized against the maximum intensity observed for the respective sample at time 0. The normalized sample was further corrected by blank subtraction. The observed rate (kobs) was derived by fitting the change in intensity with respect to time by fitting to association kinetics equation implemented in Prism. Y=Y0+(Ymax−Y0)(1−e^[…]) where, Y0 is the intensity at time 0, Ymax is the maximum intensity, k is rate constant.

SMILES: CC(C)C[C@H](NC(=O)[C@H](CC(N)=O)NC(=O)[C@H](CC(C)C)NC(=O)[C@H](CCC(=O)O)NC(=O)[C@H](CC(N)=O)NC(=O)[C@H](Cc1ccc(OP(=O)(O)O)cc1)NC(=O)[C@H](CC(C)C)NC(=O)[C@H](CCC(N)=O)NC(=O)[C@@H](N)CC(N)=O)C(=O)NCC(=O)N[C@@H](CCCNC(=N)N)C(=O)N[C@@H](CCCNC(=N)N)C(=O)N[C@@H](C)C(=O)N[C@@H](CCC(=O)O)C(=O)N[C@@H](Cc1ccc(OP(=O)(O)O)cc1)C(=O)N[C@@H](CC(=O)O)C(=O)N[C@H](C(=O)N[C@@H](CC(C)C)C(=O)N[C@@H](CC(=O)O)C(=O)O)C(C)C [ITAM-Y2P-ζ1 E13A]
- Kd (tSH2R192A of ZAP-70): 9.8 ± 0.75 µM

SMILES: CC(C)C[C@H](NC(=O)CNC(=O)[C@@H](N)CC(=O)O)C(=O)N[C@@H](Cc1ccc(OP(=O)(O)O)cc1)C(=O)N[C@@H](CCC(N)=O)C(=O)NCC(=O)N[C@@H](CC(C)C)C(=O)N[C@@H](CO)C(=O)N[C@H](C(=O)N[C@@H](C)C(=O)N[C@H](C(=O)N[C@@H](CCCCN)C(=O)N[C@@H](CC(=O)O)C(=O)N[C@H](C(=O)N[C@@H](Cc1ccc(OP(=O)(O)O)cc1)C(=O)N[C@@H](CC(=O)O)C(=O)N[C@@H](C)C(=O)N[C@@H](CC(C)C)C(=O)N[C@@H](Cc1c[nH]cn1)C(=O)O)[C@@H](C)O)[C@@H](C)O)[C@@H](C)O [ITAM-Y2P-ζ3] (H-DGL[pY]QGLSTATKDT[pY]DALH-OH)
- Kd (Syk tSH2 domain): 69.8 nM and 65 to 70 nM
- Kd (tSH2R192A of ZAP-70): 12 ± 0.9 µM

SMILES: CC(C)C[C@H](NC(=O)[C@H](CC(N)=O)NC(=O)[C@H](CC(C)C)NC(=O)[C@H](CCC(=O)O)NC(=O)[C@H](CC(N)=O)NC(=O)[C@H](Cc1ccc(OP(=O)(O)O)cc1)NC(=O)[C@H](CC(C)C)NC(=O)[C@H](CCC(N)=O)NC(=O)[C@@H](N)CC(N)=O)C(=O)NCC(=O)N[C@@H](CCCNC(=N)N)C(=O)N[C@@H](CCCNC(=N)N)C(=O)N[C@@H](CCC(=O)O)C(=O)N[C@@H](CCC(=O)O)C(=O)N[C@@H](Cc1ccc(O)cc1)C(=O)N[C@@H](CC(=O)O)C(=O)N[C@H](C(=O)N[C@@H](CC(C)C)C(=O)N[C@@H](CC(=O)O)C(=O)O)C(C)C [ITAM-YP-ζ1]
- Subsequent (second) binding step (tSH2 domain of ZAP-70): no subsequent binding was observed
- kobsfast (ZAP-70 tSH2 domain; 100 nM tSH2, 30 μM peptide, 20 mM Tris pH 8.0, 150 mM NaCl, 5% glycerol, 5 mM β-mercaptoethanol, λex 290/λem 350 nm, 1 s transients, SD from three independent experiments): 28.60 ± 5.84 s⁻¹
- Slow binding step (in words) (ZAP-70 tSH2 domain; wild-type tSH2): no detectable slow binding
